Assay results reported in patent US12084472B2 (Ardelyx, Inc., priority 2015, dated 2024).

target: T1, human TGR5 (Homo sapiens, UniProt Q8TDU6); test: Cell-based TGR5 assay (cAMP generation, HTRF); details: HEK293 cells stably transfected with human TGR5; cAMP by HTRF; 30 minutes at 37° C.; read-out: pEC50 Human TGR5 (converted)
T1 construct: expressed in transfected cells; host or cells: HEK293
T1 sequence (Q8TDU6 1-330): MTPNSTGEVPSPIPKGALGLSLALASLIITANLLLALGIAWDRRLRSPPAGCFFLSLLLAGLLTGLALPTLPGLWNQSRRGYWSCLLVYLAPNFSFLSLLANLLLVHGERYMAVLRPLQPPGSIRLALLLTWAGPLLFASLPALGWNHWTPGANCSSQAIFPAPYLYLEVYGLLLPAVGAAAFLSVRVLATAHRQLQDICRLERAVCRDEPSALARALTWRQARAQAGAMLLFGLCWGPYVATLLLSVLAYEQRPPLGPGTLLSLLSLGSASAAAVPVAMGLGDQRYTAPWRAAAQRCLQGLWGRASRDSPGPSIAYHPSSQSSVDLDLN
Method in brief: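 First, compounds in 3-fold serial dilution were placed in HBSS with 10 mM HEPES pH 7.4 and 0.5 mM IBMX. Next, human TGR5-expressing HEK293 cells were added and incubated 30 min at 37° C. Finally, cAMP was detected by HTRF and pEC50 derived by logistic fitting.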

Compound	EC50 [nM]
CC(OCCc1cc(Cl)c(COC2(c3cnccc3-c3ccccc3OC3CC3)CC2)cc1Cl)C(=O)N(C)C[C@H](O)[C@@H](O)[C@H](O)[C@H](O)CO (stereo partly drawn) [Compound I-155, 2-{2-[2,5-dichloro-4-({1-[4-(2-cyclopropoxyphenyl)pyridin-3-yl]cyclopropoxy}methyl)phenyl]ethoxy}-N-methyl-N-[(2S,3R,4R,5R)-2,3,4,5,6-pentahydroxyhexyl]propanamide]	< 100
O=C(CCCCc1cc(Cl)c(COC2(c3cnccc3-c3ccccc3OC3CC3)CC2)cc1Cl)N[C@@H](CO)[C@@H](O)[C@H](O)[C@H](O)CO [Compound I-156, 5-[2,5-dichloro-4-({1-[4-(2-cyclopropoxyphenyl)pyridin-3-yl]cyclopropoxy}methyl)phenyl]-N-[(2S,3R,4S,5R)-1,3,4,5,6-pentahydroxyhexan-2-yl]pentanamide]	< 100
O=C(O)CCCCc1cc(Cl)c(COC2(c3cnccc3-c3ccccc3OC3CC3)CC2)cc1Cl [Compound I-157, 5-[2,5-dichloro-4-({1-[4-(2-cyclopropoxyphenyl)pyridin-3-yl]cyclopropoxy}methyl)phenyl]pentanoic acid]	< 100
CC(CCCC(=O)NC[C@H](O)[C@@H](O)[C@H](O)[C@H](O)CO)c1cc(Cl)c(COC2(c3cnccc3-c3ccccc3OC3CC3)CC2)cc1Cl (stereo partly drawn) [Compound I-161, 5-[2,5-dichloro-4-({1-[4-(2-cyclopropoxyphenyl)pyridin-3-yl]cyclopropoxy}methyl)phenyl]-N-[(2S,3R,4R,5R)-2,3,4,5,6-pentahydroxyhexyl]hexanamide]	< 100
CC(CCCC(=O)N(C)C[C@H](O)[C@@H](O)[C@H](O)[C@H](O)CO)c1cc(Cl)c(COC2(c3cnccc3-c3ccccc3OC3CC3)CC2)cc1Cl (stereo partly drawn) [Compound I-162, 5-[2,5-dichloro-4-({1-[4-(2-cyclopropoxyphenyl)pyridin-3-yl]cyclopropoxy}methyl)phenyl]-N-methyl-N-[(2S,3R,4R,5R)-2,3,4,5,6-pentahydroxyhexyl]hexanamide]	< 100
CN(C)C[C@H](NC(=O)CCCCc1cc(Cl)c(COC2(c3cnccc3-c3ccccc3OC3CC3)CC2)cc1Cl)[C@@H](O)[C@H](O)[C@H](O)CO [Compound I-165, 5-[2,5-dichloro-4-({1-[4-(2-cyclopropoxyphenyl)pyridin-3-yl]cyclopropoxy}methyl)phenyl]-N-[(2S,3R,4S,5R)-1-(dimethylamino)-3,4,5,6-tetrahydroxyhexan-2-yl]pentanamide]	< 100
Cc1cc(COC2(c3cnccc3-c3ccccc3OC3CC3)CC2)c(Cl)cc1CCCCN [Compound I-166, 4-[5-chloro-4-({1-[4-(2-cyclopropoxyphenyl)pyridin-3-yl]cyclopropoxy}methyl)-2-methylphenyl]butan-1-amine]	< 100
Cc1cc(COC2(c3cnccc3-c3ccccc3OC3CC3)CC2)c(Cl)cc1CCCCNC(=O)N(C)C[C@H](O)[C@@H](O)[C@H](O)[C@H](O)CO [Compound I-167, 1-{4-[5-chloro-4-({1-[4-(2-cyclopropoxyphenyl)pyridin-3-yl]cyclopropoxy}methyl)-2-methylphenyl]butyl}-3-methyl-3-[(2S,3R,4R,5R)-2,3,4,5,6-pentahydroxyhexyl]urea]	< 100
CN(C[C@H](O)[C@@H](O)[C@H](O)[C@H](O)CO)C(=O)CCN(CCC(=O)N(C)C[C@H](O)[C@@H](O)[C@H](O)[C@H](O)CO)C(=O)CCCCc1cc(Cl)c(COC2(c3cnccc3-c3ccccc3OC3CC3)CC2)cc1Cl [Compound I-169, 5-[2,5-dichloro-4-({1-[4-(2-cyclopropoxyphenyl)pyridin-3-yl]cyclopropoxy}methyl)phenyl]-N,N-bis(2-{methyl[(2S,3R,4R,5R)-2,3,4,5,6-pentahydroxyhexyl]carbamoyl}ethyl)pentanamide]	126 to 1000
CN(CCCNC[C@H](O)[C@@H](O)[C@H](O)[C@H](O)C(=O)O)C(=O)CCCCc1cc(Cl)c(COC2(c3cnccc3-c3ccccc3OC3CC3)CC2)cc1Cl [Compound I-180, (2S,3S,4R,5S)-6-[(3-{5-[2,5-dichloro-4-({1-[4-(2-cyclopropoxyphenyl)pyridin-3-yl]cyclopropoxy}methyl)phenyl]-N-methylpentanamido}propyl)amino]-2,3,4,5-tetrahydroxyhexanoic acid]	< 100
CN(CCCCc1cc(Cl)c(COC2(c3cnccc3-c3ccccc3OC3CC3)CC2)cc1Cl)C(=O)CN(CCN(CC(=O)O)CC(=O)N(C)CCCCc1cc(Cl)c(COC2(c3cnccc3-c3ccccc3OC3CC3)CC2)cc1Cl)CC(=O)O [Compound I-188, 2-({2-[(carboxymethyl)[({4-[2,5-dichloro-4-({1-[4-(2-cyclopropoxyphenyl)pyridin-3-yl]cyclopropoxy}methyl)phenyl]butyl}(methyl)carbamoyl)methyl]amino]ethyl}[({4-[2,5-dichloro-4-({1-[4-(2-cyclopropoxyphenyl)pyridin-3-yl]cyclopropoxy}methyl)phenyl]butyl}(methyl)carbamoyl)methyl]amino)acetic acid]	126 to 1000
Cc1cc(COC2(c3cnccc3-c3ccccc3OC3COC3)CC2)c(Cl)cc1CCCCNC(=O)N(C)C[C@H](O)[C@@H](O)[C@H](O)[C@H](O)CO [Compound I-191, 1-(4-{5-chloro-2-methyl-4-[(1-{4-[2-(oxetan-3-yloxy)phenyl]pyridin-3-yl}cyclopropoxy)methyl]phenyl}butyl)-3-methyl-3-[(2S,3R,4R,5R)-2,3,4,5,6-pentahydroxyhexyl]urea]	< 100
CN(C[C@H](O)[C@@H](O)[C@H](O)[C@H](O)CO)C(=O)CCCCc1cc(Cl)c(COC2(c3cnccc3-c3ccccc3OC3COC3)CC2)cc1Cl [Compound I-192, 5-{2,5-dichloro-4-[(1-{4-[2-(oxetan-3-yloxy)phenyl]pyridin-3-yl}cyclopropoxy)methyl]phenyl}-N-methyl-N-[(2S,3R,4R,5R)-2,3,4,5,6-pentahydroxyhexyl]pentanamide]	< 100

The remaining lines, values ahead:

EC50 [nM]	Compound
1260 to 10000	CN(C[C@H](O)[C@@H](O)[C@H](O)[C@H](O)CO)C(=O)CCN(CCC(=O)N(C)C[C@H](O)[C@@H](O)[C@H](O)[C@H](O)CO)C(=O)CCCCc1cc(Cl)c(CNC2(c3cnccc3-c3ccccc3OC3CC3)CC2)cc1Cl [Compound I-171, 5-{2,5-dichloro-4-[({1-[4-(2-cyclopropoxyphenyl)pyridin-3-yl]cyclopropyl}amino)methyl]phenyl}-N,N-bis(2-{methyl[(2S,3R,4R,5R)-2,3,4,5,6-pentahydroxyhexyl]carbamoyl}ethyl) pentanamide]
126 to 1000	O=C(NCCCCc1cc(Cl)c(CNC2(c3cnccc3-c3ccccc3OC3COC3)CC2)cc1Cl)NC[C@H](O)[C@@H](O)[C@H](O)[C@H](O)CO [Compound I-174, 1-[4-(2,5-dichloro-4-([(1-{4-[2-(oxetan-3-yloxy)phenyl]pyridin-3-yl}cyclopropyl)amino]methyl)phenyl)butyl]-3-[(2S,3R,4R,5R)-2,3,4,5,6-pentahydroxyhexyl]urea]
126 to 1000	CN(C[C@H](O)[C@@H](O)[C@H](O)[C@H](O)CO)C(=O)NCCCCc1cc(Cl)c(CNC2(c3cnccc3-c3ccccc3OC3COC3)CC2)cc1Cl [Compound I-175, 1-[4-(2,5-dichloro-4-{[(1-{4-[2-(oxetan-3-yloxy)phenyl]pyridin-3-yl}cyclopropyl)amino]methyl}phenyl)butyl]-3-methyl-3-[(2S,3R,4R,5R)-2,3,4,5,6-pentahydroxyhexyl]urea]
< 100	CN(C[C@H](O)[C@@H](O)[C@H](O)[C@H](O)CO)C(=O)CCCCc1cc(Cl)c(CNC2(c3cnccc3-c3ccccc3OC3COC3)CC2)cc1Cl [Compound I-177, 5-(2,5-dichloro-4-{[(1-(4-[2-(oxetan-3-yloxy)phenyl]pyridin-3-yl}cyclopropyl)amino]methyl)phenyl)-N-methyl-N-[(2S,3R,4R,5R)-2,3,4,5,6-pentahydroxyhexyl]pentanamide]
126 to 1000	O=C(O)CCN(C[C@H](O)[C@@H](O)[C@H](O)[C@H](O)CO)C(=O)CCCCc1cc(Cl)c(CNC2(c3cnccc3-c3ccccc3OC3CC3)CC2)cc1Cl [Compound I-178, 3-(5-{2,5-dichloro-4-[({1-[4-(2-cyclopropoxyphenyl)pyridin-3-yl]cyclopropyl}amino)methyl]phenyl}-N-[(2S,3R,4R,5R)-2,3,4,5,6-pentahydroxyhexyl]pentanamido)propanoic acid]
< 100	O=C(O)CCCC(=O)N(CCCCc1cc(Cl)c(COC2(c3cnccc3-c3ccccc3OC3CC3)CC2)cc1Cl)C[C@H](O)[C@@H](O)[C@H](O)[C@H](O)CO [Compound I-182, 4-({4-[2,5-dichloro-4-({1-[4-(2-cyclopropoxyphenyl)pyridin-3-yl]cyclopropoxy}methyl)phenyl]butyl}[(2S,3R,4R,5R)-2,3,4,5,6-pentahydroxyhexyl]carbamoyl)butanoic acid]
< 100	O=C(O)CCN(C[C@H](O)[C@@H](O)[C@H](O)[C@H](O)CO)C(=O)CCCCc1cc(Cl)c(COC2(c3cnccc3-c3ccccc3OC3CC3)CC2)cc1Cl [Compound I-183, 3-{5-[2,5-dichloro-4-({1-[4-(2-cyclopropoxyphenyl)pyridin-3-yl]cyclopropoxy}methyl)phenyl]-N-[(2S,3R,4R,5R)-2,3,4,5,6-pentahydroxyhexyl]pentanamido}propanoic acid]
